This is an account of results in patent US7453000B2, “Substituted oxazolobenzoisothiazole dioxide derivatives method for production and use thereof” (Sanofi-Aventis Deutschland GmbH, priority 2004, dated 2008).

pIC50: −log10 of the molar value.

This assay concerns the target T1, human PTP1B (Homo sapiens, UniProt P18031).
T1 construct: without the carboxy-terminal hydrophobic region (corresponding to 1-299 aa); made in house; host or cells: Sf9 insect cells (Spodoptera frugiperda), baculovirus (Bac-to-Bac, pFASTBAC)
T1 sequence (P18031 1-299): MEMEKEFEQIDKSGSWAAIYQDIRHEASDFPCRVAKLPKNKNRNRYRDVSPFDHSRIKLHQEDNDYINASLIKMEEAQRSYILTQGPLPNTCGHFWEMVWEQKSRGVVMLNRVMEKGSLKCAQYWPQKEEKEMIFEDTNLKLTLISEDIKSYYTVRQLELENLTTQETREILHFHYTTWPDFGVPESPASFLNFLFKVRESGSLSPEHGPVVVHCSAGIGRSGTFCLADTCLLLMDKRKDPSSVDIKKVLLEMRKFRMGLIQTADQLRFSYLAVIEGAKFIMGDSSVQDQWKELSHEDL
Put plainly: Enzymatic test system for detecting inhibition of a phosphatase (recombinant hPTP1B; phosphopeptide dephosphorylation / p-nitrophenyl phosphate cleavage). In kind it is biochemical. The conditions noted are these: inhibition of recombinant hPTP1B (1-299 aa, expressed in Sf9 cells); Table 2 does not say which substrate procedure (A phosphopeptide or B pNPP). On the procedure: The activity of the compounds was tested as follows:
Enzymatic test systems for detecting inhibition of a phosphatase
The compounds of the formula I were tested for their phosphatase-inhibiting effect in an in vitro assay. The enzyme preparation and the performance of the assay was carried out as follows.
Obtaining the Enzyme Preparation:
• Sf9 cells (=Spodoptera frugiperda cell type; obtainable from invitrogen) are cultured in Grace's supplemented medium (Gibco-BRL) with 10% heat-inactivated fetal calf serum (Gibco-BRL) in spinner flasks at 28° C. in accordance with the protocol of Summers and Smith (A Manual for Methods for Baculoviruns Vectors and Insect Culture Procedures [Bulletin No. 15555]. Texas A & M University, Texas Agricultural Experiment Station, College Station, Tex., 1987). • Construction of recombinant Baculovirus transfer vectors: cDNA coding for the regulatory and catalytic domains of human PTP1B, but without the carboxy-terminal hydrophobic region (corresponding to 1-299 aa) was obtained by polymerase chain reaction via primers with attached cloning sites and suitable cDNA templates (obtainable for example from invitrogen) and then cloned into baculovirus expression vectors (Amersham Pharmacia Biotech.). The recombinant baculoviruses were prepared with the aid of the Bac-to-Bac baculovirus expression system (obtainable from Gibco-BRL). The gene was cloned into the pFASTBAC donor plasmid (obtainable from Life Technologies). The resulting plasmid was transformed into competent DH10BAC Escherichia coli cells (obtainable from Life Technologies). After transposition and antibiotic selection, the recombinant plasmid DNA was isolated from selected E. coli colonies and then used for the transfection of Sf9 insect cells. The virus particle in the supernatant medium was amplified three times up to a viral stock volume of 500 ml. B) Production of Recombinant Protein: • Baculovirus infection of a 500 ml spinner culture of Sf9 cells was essentially carried out as described by Summers and Smith (see above). Sf9 cells at a density of 1-3×10^6 cells/ml were pelleted by centrifugation at 300 g for 5 min, the supernatant was removed, and the cells were resuspended in a density of 1×10^7 cells/ml in a suitable recombinant viral stock (MOI 10). After careful shaking at room temperature for 1.5 h, fresh medium was added in order to achieve a cell density of 1×10^6 cells/ml. The cells were then cultured in suspension at 28° C. for suitable periods after postinfection. C) Cellular Fractionation and Complete Cell Extracts of Infected Sf9 Cells: • After the postinfection, aliquots were subjected to an analysis of protein expression by SDS-PAGE and Western blot analysis. The cellular fractionation was carried out as described (Cromlish, W. and Kennedy, B. Biochem. Pharmacol. 52: 1777-1785, 1996). Complete cell extracts were obtained from 1 ml aliquots of the infected Sf9 cells after certain times postinfection. The pelleted cells (300×g, 5 min) were washed once in phosphate-buffered saline (4° C.), resuspended in 50 μl of water and disrupted by repeated freezing/thawing. Protein concentrations were determined with the aid of the Bradford method and bovine serum albumin as standard. Assay Procedure: A) Dephosphorylation of a Phosphopeptide: • This assay is based on the release of phosphate from a consensus substrate peptide which is detected in the nanomolar concentration range by the malachite green/ammonium molybdate method (Lanzefta, P. A., Alvarez, L. J., Reinach, P. S., Candia, O. A. Anal Biochem. 100: 95-97, 1979) adapted for the microtiter plate format. The dodecatrisphosphopeptide TRDIYETDYYRK (Biotrend, Cologne) corresponds to amino acids 1142-1153 of the catalytic domain of the insulin receptor and is (auto)phosphorylated on tyrosine residues 1146, 1150 and 1151. […]
In general, pIC50 refers to −log10 of the IC50, conventionally taken in molar units. In the case of `N#Cc1cccc(-c2cnc(Nc3ccc4c(c3)CS(=O)(=O)N4)o2)c1` [Example 1], the pIC50 was 5.14.

Turning to `O=S1(=O)Cc2cc(Nc3ncc(-c4cccc(Br)c4)o3)ccc2N1` [Example 2], the pIC50 was 4.90.

In the case of `O=S1(=O)Cc2cc(Nc3ncc(-c4ccc(C(F)(F)F)cc4)o3)ccc2N1` [Example 3], the pIC50 is 4.80.

As to `CC(C)(C)c1cc(-c2cnc(Nc3ccc4c(c3)CS(=O)(=O)N4)o2)cc(C(C)(C)C)c1O` [Example 4], the pIC50 was 5.21.

For `O=S1(=O)Cc2cc(Nc3ncc(-c4ccc(-c5ccc(Cl)cc5)cc4)o3)ccc2N1` [Example 5], the pIC50 was 5.67.

For `O=S1(=O)Cc2cc(Nc3ncc(-c4ccc(Br)s4)o3)ccc2N1` [Example 6], the pIC50 is 5.03.

Consider `O=C(O)c1cc(-c2cnc(Nc3ccc4c(c3)CS(=O)(=O)N4)o2)ccc1O` [Example 7], for which the pIC50 was 3.79.

Consider `O=C(O)COc1ccc(-c2cnc(Nc3ccc4c(c3)CS(=O)(=O)N4)o2)cc1` [Example 8], for which the pIC50 is 3.54.
